Measured values reported in US9695128B2, “Ethynyl derivatives” (Hoffmann-La Roche Inc., priority 2014, dated 2017).

Legend:
[1] = target: recombinant human mGlu4 expressed in HEK293 cells (Homo sapiens (Human), UniProt Q14833); experiment: Ca2+ mobilization in vitro assay, mGlu4 PAM (with EC20 of L-AP4); format: cell-based; settings: for Emax: HEK293, maximal response in % of the maximal stimulatory effect obtained with saturating concentrations of L-AP4, read-out: Eff. (%); for EC50: human mGlu4 in HEK293 cells, Ca2+ mobilization, L-AP4 at EC20, read-out: EC50 (nM) mGlu4PAM
Sequence of recombinant human mGlu4 expressed in HEK293 cells (Q14833 33-912): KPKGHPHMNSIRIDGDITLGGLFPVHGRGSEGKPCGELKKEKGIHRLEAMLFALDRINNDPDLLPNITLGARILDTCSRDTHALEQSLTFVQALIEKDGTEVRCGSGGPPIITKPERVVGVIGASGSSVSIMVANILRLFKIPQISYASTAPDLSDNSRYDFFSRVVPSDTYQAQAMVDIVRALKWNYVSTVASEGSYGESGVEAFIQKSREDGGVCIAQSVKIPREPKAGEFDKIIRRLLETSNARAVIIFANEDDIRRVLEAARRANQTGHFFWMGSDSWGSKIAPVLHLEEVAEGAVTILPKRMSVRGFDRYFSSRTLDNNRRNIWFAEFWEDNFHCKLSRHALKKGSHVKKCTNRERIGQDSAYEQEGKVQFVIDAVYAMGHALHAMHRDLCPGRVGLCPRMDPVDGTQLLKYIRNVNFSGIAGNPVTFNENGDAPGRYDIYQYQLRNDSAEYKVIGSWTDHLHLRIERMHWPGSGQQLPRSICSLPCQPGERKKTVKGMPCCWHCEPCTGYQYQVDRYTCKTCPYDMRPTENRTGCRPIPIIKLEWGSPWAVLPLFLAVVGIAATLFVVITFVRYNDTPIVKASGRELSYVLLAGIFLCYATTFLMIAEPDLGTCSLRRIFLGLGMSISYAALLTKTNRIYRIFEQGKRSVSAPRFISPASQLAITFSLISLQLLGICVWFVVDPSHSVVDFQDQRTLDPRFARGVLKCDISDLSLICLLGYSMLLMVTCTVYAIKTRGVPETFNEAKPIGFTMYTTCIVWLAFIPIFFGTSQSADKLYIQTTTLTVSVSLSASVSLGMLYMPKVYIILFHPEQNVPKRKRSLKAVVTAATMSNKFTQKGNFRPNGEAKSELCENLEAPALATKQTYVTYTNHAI
Procedure: Determination of EC50 Values Using a Ca2+ Mobilization in vitro Assay on Recombinant Human mGlu4 Expressed in HEK293 Cells:
A monoclonal HEK-293 cell line stably transfected with a cDNA encoding for the human mGlu4 receptor was generated; for the work with mGlu4 Positive Allosteric Modulators (PAMs), a cell line with low receptor expression levels and low constitutive receptor activity was selected to allow the differentiation of agonistic versus PAM activity. Cells were cultured according to standard protocols (Freshney, 2000) in Dulbecco's Modified Eagle Medium with high glucose supplemented with 1 mM glutamine, 10% (vol/vol) heat-inactivated bovine calf serum, Penicillin/Streptomycin, 50 μg/ml hygromycin and 15 μg/ml blasticidin (all cell culture reagents and antibiotics from Invitrogen, Basel, Switzerland). • About 24 hrs before an experiment, 5×10^4 cells/well were seeded in poly-D-lysine coated, black/clear-bottomed 96-well plates. The cells were loaded with 2.5 μM Fluo-4AM in loading buffer (1×HBSS, 20 mM HEPES) for 1 hr at 37° C. and washed five times with loading buffer. The cells were transferred into a Functional Drug Screening System 7000 (Hamamatsu, Paris, France), and 11 half logarithmic serial dilutions of test compound at 37° C. were added and the cells were incubated for 10-30 min. with on-line recording of fluorescence. Following this pre-incubation step, the agonist (2S)-2-amino-4-phosphonobutanoic acid (L-AP4) was added to the cells at a concentration corresponding to EC20 with on-line recording of fluorescence; in order to account for day-to-day variations in the responsiveness of cells, the EC20 of L-AP4 was determined immediately ahead of each experiment by recording of a full dose-response curve of L-AP4.
Responses were measured as peak increase in fluorescence minus basal (i.e. fluorescence without addition of L-AP4), normalized to the maximal stimulatory effect obtained with saturating concentrations of L-AP4. Graphs were plotted with the % maximal stimulatory using XLfit, a curve fitting program that iteratively plots the data using Levenburg Marquardt algorithm. The single site competition analysis equation used was y=A+((B−A)/(1+((x/C)D))), where y is the % maximal stimulatory effect, A is the minimum y, B is the maximum y, C is the EC50, x is the log 10 of the concentration of the competing compound and D is the slope of the curve (the Hill Coefficient). From these curves the EC50 (drug concentration at which 50% of the maximal receptor activation was achieved), the Hill coefficient as well as the maximal response in % of the maximal stimulatory effect obtained with saturating concentrations of L-AP4 were calculated (see FIG. 1).
A depression of the signal observed after addition of the EC20 concentration of L-AP4 was indicative of an inhibitory activity of the test compound.

[2] = tested on: 6-OHDA rodent model of PD; settings: cited from earlier work
[3] = tested on: marble burying test in mice; settings: reported by Addex 2010; cited from earlier work
EPM in mice = settings: reported by Addex 2010; cited from earlier work
EPM in rats = settings: cited from earlier work
mice treated with MPTP = settings: cited from earlier work

| SMILES | Emax [1] | EC50 [1] | other results |
| --- | --- | --- | --- |
| O=C1C2Cc3ccccc3CN2C(=O)N1c1c(F)cc(C#Cc2ccccc2)cc1F (racemic) [Example 9, (10aRS)-2-[2,6-Difluoro-4-(2-phenylethynyl)phenyl]-10,10a-dihydro-5H-imidazo[1,5-b]isoquinoline-1,3-dione] | 99% | 56 nM | – |
| N[C@@H](CCP(=O)(O)O)C(=O)O [L-AP4, (2S)-2-amino-4-phosphonobutanoic acid] | – | – | neuroprotective effects [2]: demonstrated neuroprotective effects |
| O=C1C2Cc3ccccc3N2C(=O)N1c1c(F)cc(C#Cc2ccccc2)cc1F (racemic) [Example 5, (3aRS)-2-[2,6-Difluoro-4-(2-phenylethynyl)phenyl]-3a,4-dihydroimidazo[1,5-a]indole-1,3-dione] | 103% | 188 nM | – |
| CC1CCCC2C(=O)N(c3ccc(C#Cc4ccccc4)cc3Cl)C(=O)N12 (racemic) [Example 10, (5RS,8aRS)-2-[2-Chloro-4-(2-phenylethynyl)phenyl]-5-methyl-6,7,8,8a-tetrahydro-5H-imidazo[1,5-a]pyridine-1,3-dione] | 232% | 256 nM | – |
| O=C1C2CCc3ccccc3N2C(=O)N1c1c(F)cc(C#Cc2ccccc2)cc1F (racemic) [Example 6, (3aRS)-2-[2,6-Difluoro-4-(2-phenylethynyl)phenyl]-4,5-dihydro-3aH-imidazo[1,5-a]quinoline-1,3-dione] | 110% | 74 nM | – |
| CC1(C)C(=O)N(c2c(F)cc(C#Cc3ccccc3)cc2F)C(=O)N1c1ccccc1 [Example 7, 3-[2,6-Difluoro-4-(2-phenylethynyl)phenyl]-5,5-dimethyl-1-phenyl-imidazolidine-2,4-dione] | 222% | 242 nM | – |
| O=C1CN(C2CC2)C(=O)N1c1c(F)cc(C#Cc2ccccc2)cc1F [Example 12, 1-Cyclopropyl-3-[2,6-difluoro-4-(2-phenylethynyl)phenyl]imidazolidine-2,4-dione] | 113% | 370 nM | – |
| Cc1ccnc(Nc2nc(-c3cn[nH]c3)c(C)s2)n1 [ADX88178] | – | – | activity in marble burying test [3]: active; activity in EPM (EPM in mice): active; profile in rat EPM test (EPM in rats; rat, after oral dosing): anxiolytic-like profile; activity in EPM (EPM in rats; rats, reported by Addex 2010): active |
| CC1CCCC2C(=O)N(c3c(F)cc(C#Cc4cccnc4)cc3Cl)C(=O)N12 (racemic) [Example 11, (5RS,8aRS)-2-[2-Chloro-6-fluoro-4-[2-(3-pyridyl)ethynyl]phenyl]-5-methyl-6,7,8,8a-tetrahydro-5H-imidazo[1,5-a]pyridine-1,3-dione] | 140% | 180 nM | – |
| O=C(Nc1ccccc1)C12CC1/C(=N\O)c1ccccc1O2 (single isomer, unassigned; (-)) [(−)-PHCCC] | – | – | nigrostriatal degeneration (mice treated with MPTP): reduced nigrostriatal degeneration |

Second part, led by results:

| Emax [1] | EC50 [1] | SMILES | other results |
| --- | --- | --- | --- |
| 98% | 286 nM | CC(C)N1C(=O)N(c2c(F)cc(C#Cc3ccccc3)cc2F)C(=O)C1(C)C [Example 3, 3-[2,6-Difluoro-4-(2-phenylethynyl)phenyl]-1-isopropyl-5,5-dimethyl-imidazolidine-2,4-dione] | – |
| 100% | 230 nM | CC(C)N1C(=O)N(c2c(F)cc(C#Cc3ccccc3)cc2F)C(=O)C12COC2 [Example 13, 7-[2,6-Difluoro-4-(2-phenylethynyl)phenyl]-5-isopropyl-2-oxa-5,7-diazaspiro[3.4]octane-6,8-dione] | – |
| 107% | 104 nM | CC(C)N1C(=O)N(c2c(F)cc(C#Cc3ccccc3)cc2F)C(=O)C1C (racemic) [Example 2, (5RS)-3-[2,6-Difluoro-4-(2-phenylethynyl)phenyl]-1-isopropyl-5-methyl-imidazolidine-2,4-dione] | – |
| 143% | 222 nM | CC(C)(C)N1CC(=O)N(c2c(F)cc(C#Cc3ccccc3)cc2F)C1=O [Example 8, 1-tert-Butyl-3-[2,6-difluoro-4-(2-phenylethynyl)phenyl]imidazolidine-2,4-dione] | – |
| 154% | 441 nM | CC(C)N1CC(=O)N(c2c(F)cc(C#Cc3ccccc3)cc2F)C1=O [Example 1, 3-[2,6-Difluoro-4-(2-phenylethynyl)phenyl]-1-isopropyl-imidazolidine-2,4-dione] | – |
| 188% | 204 nM | CC1COCC2C(=O)N(c3c(F)cc(C#Cc4ccccc4)cc3F)C(=O)N12 (racemic) [Example 4, (5RS,8aRS)-2-[2,6-Difluoro-4-(2-phenylethynyl)phenyl]-5-methyl-5,6,8,8a-tetrahydroimidazo[5,1-c][1,4]oxazine-1,3-dione] | – |
